Data as given in patent US20070244169A1, “GLUCOKINASE ACTIVATORS” (priority 2005, published 2007).
pEC50: −log10 of the molar value.

What follows are molecules tested against T1, GST-hLGK1 (GK) (Homo sapiens, UniProt P35557) (assay: GK activation assay with GST-hLGK1 and Mant-ATP, capillary electrophoresis readout). Settings: GST-hLGK1 6 μg/mL, 50 μM Mant-ATP, 25 mM D-glucose solution (10 μL) added, 37° C. for 60 min; concentration for 50% of the maximum activity value; read-out: EC50 of Exemplified Compounds against GK.
T1 construct: GST (N); made in house
T1 sequence (P35557 1-464 isoform P35557-3): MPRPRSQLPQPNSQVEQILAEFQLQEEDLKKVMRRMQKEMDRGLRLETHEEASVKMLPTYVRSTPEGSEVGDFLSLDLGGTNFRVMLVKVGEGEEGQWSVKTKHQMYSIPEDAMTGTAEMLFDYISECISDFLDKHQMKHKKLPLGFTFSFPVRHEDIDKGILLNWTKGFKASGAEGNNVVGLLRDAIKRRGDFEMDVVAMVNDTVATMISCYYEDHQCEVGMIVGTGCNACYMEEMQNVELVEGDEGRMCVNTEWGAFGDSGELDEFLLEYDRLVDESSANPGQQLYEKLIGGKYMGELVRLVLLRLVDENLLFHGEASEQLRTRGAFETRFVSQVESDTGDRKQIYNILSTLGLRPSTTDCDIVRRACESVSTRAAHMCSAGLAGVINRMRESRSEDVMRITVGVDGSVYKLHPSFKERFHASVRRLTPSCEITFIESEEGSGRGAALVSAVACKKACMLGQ
Type: biochemical
Description: A 50% solution (5 μL) of the test compound in dimethyl sulfoxide was added to each well of a 384 well black plate (Nalge Nunc). Then, 35 μL of a liquid obtained by diluting GST-hLGK1 obtained in Reference Example 2A with a measurement buffer (50 mM HEPES (pH 7.4), containing 200 mM KCl, 5 mM MgCl2, 2.5 mM DTT and 50 μM 2′-(or-3′)—O—(N-methylanthraniloyl)adenosine 5′-triphosphate (Mant-ATP) (Jena Bioscience)) was added to each well to 6 μg/mL. Each well was maintained at 37° C. for 10 min, and a 25 mM D-glucose solution (10 μL) was added to start the reaction. After the start of the reaction, each well was allowed to stand at 37° C. for 60 min, before quenching the reaction by adding 25 μL of a reaction quenching solution (200 mM HEPES (pH 7.4), containing 20 mM MgCl2, 200 mM EDTA, 0.03% Triton-X 100, 0.3% Coating 3 reagent (Caliper Life Sciences)).
Mant-ATP (substrate) and Mant-ADP (reaction resultant product) were separated from each well after quenching the reaction, with a microchip type capillary electrophoresis apparatus 250HTS (Caliper Life Sciences). The reaction rate [(peak height of reaction resultant product)/(peak height of reaction resultant product+peak height of substrate)×100(%)] was calculated from the ratio of the substrate peak height and the reaction resultant product peak height, which were obtained by fluorescence detection (excitation wavelength 355 nm, measurement wavelength 460 nm), and used as an index of the GK activity.
For the control, the reaction rate was calculated in the same manner as above, except that a “50% dimethyl sulfoxide solution” was used instead of the “50% solution of the test compound in dimethyl sulfoxide”.
A percentage obtained by dividing the reaction rate of the well with the test compound (test compound addition group) by the reaction rate of the well with a 50% dimethyl sulfoxide solution alone (control group) was taken as the GK activation value by the test compound, and the concentration of the test compound necessary for the activation of 50% of the maximum activity value determined as an EC50 value.
`Brc1ccc2[nH]nc(Nc3nccs3)c2c1` [Compound 7, 5-Bromo-N-1,3-thiazol-2-yl-1H-indazol-3-amine] showed a pEC50 of 5.30.
`Cn1nc(Nc2nccs2)c2cc(C(F)(F)F)ccc21` [Compound 9, 1-Methyl-N-1,3-thiazol-2-yl-5-(trifluoromethyl)-1H-indazol-3-amine] gave a pEC50 of 5.60.
`O=[N+]([O-])c1ccc2[nH]nc(Nc3nccs3)c2c1` [Compound 20, 5-Nitro-N-1,3-thiazol-2-yl-1H-indazol-3-amine] gave a pEC50 of 5.18.
For `CC(=O)Nc1ccc2[nH]nc(Nc3nccs3)c2c1` [Compound 22, N-[3-(1,3-Thiazol-2-ylamino)-1H-indazol-5-yl]acetamide], the pEC50 was 4.82.
For `CC(=O)c1ccc2[nH]nc(Nc3nccs3)c2c1` [Compound 25, 1-[3-(1,3-Thiazol-2-ylamino)-1H-indazol-5-yl]ethanone], the pEC50 was 5.07.
Work on `CC(C)Cc1ccc2[nH]nc(Nc3nccs3)c2c1` [Compound 29, 5-Isobutyl-N-1,3-thiazol-2-yl-1H-indazol-3-amine] yielded a pEC50 of 5.92.
For `CC(C)c1ccc2[nH]nc(Nc3nccs3)c2c1` [Compound 33, 5-Isopropyl-N-1,3-thiazol-2-yl-1H-indazol-3-amine], the pEC50 was 5.54.
For `CC(C)Oc1ccc2[nH]nc(Nc3nccs3)c2c1` [Compound 34, 5-Isopropoxy-N-1,3-thiazol-2-yl-1H-indazol-3-amine], the pEC50 was 5.77.
Work on `COCC(C)Oc1ccc2[nH]nc(Nc3nccs3)c2c1` (stereo not drawn) [Compound 35, 5-(2-Methoxy-1-methylethoxy)-N-1,3-thiazol-2-yl-1H-indazol-3-amine] yielded a pEC50 of 5.62.
